Assay results as given in the OligoGym collection.
Oligonucleotides are given in HELM: sugar(base)linkage, 5' to 3'; d 2'-deoxyribose, r ribose, m 2'-O-methylribose, p phosphate. ss, as = sense and antisense strand

target: TMEM63B; assay: reporter assay of Huesken 2005; settings: siRNA
Also: test concentration or dose not given here.

Substance	normalised inhibition (eCFP-eYFP dual reporter)
RNA1{r(C)p.r(C)p.r(C)p.r(A)p.r(U)p.r(C)p.r(A)p.r(U)p.r(C)p.r(A)p.r(C)p.r(C)p.r(C)p.r(A)p.r(G)p.r(U)p.r(U)p.r(C)p.r(U)p.d(T)p.d(T)}|RNA2{r(A)p.r(G)p.r(A)p.r(A)p.r(C)p.r(U)p.r(G)p.r(G)p.r(G)p.r(U)p.r(G)p.r(A)p.r(U)p.r(G)p.r(A)p.r(U)p.r(G)p.r(G)p.r(G)p.d(G)p.d(T)}$$$RNA1{StrandType:ss}|RNA2{StrandType:as}$	68.7%
RNA1{r(C)p.r(C)p.r(C)p.r(G)p.r(U)p.r(G)p.r(U)p.r(U)p.r(A)p.r(C)p.r(A)p.r(A)p.r(C)p.r(G)p.r(U)p.r(G)p.r(G)p.r(C)p.r(U)p.d(T)p.d(T)}|RNA2{r(A)p.r(G)p.r(C)p.r(C)p.r(A)p.r(C)p.r(G)p.r(U)p.r(U)p.r(G)p.r(U)p.r(A)p.r(A)p.r(C)p.r(A)p.r(C)p.r(G)p.r(G)p.r(G)p.d(C)p.d(G)}$$$RNA1{StrandType:ss}|RNA2{StrandType:as}$	75.8%
RNA1{r(C)p.r(C)p.r(G)p.r(C)p.r(C)p.r(G)p.r(A)p.r(G)p.r(A)p.r(G)p.r(G)p.r(C)p.r(G)p.r(C)p.r(A)p.r(A)p.r(C)p.r(G)p.r(U)p.d(T)p.d(T)}|RNA2{r(A)p.r(C)p.r(G)p.r(U)p.r(U)p.r(G)p.r(C)p.r(G)p.r(C)p.r(C)p.r(U)p.r(C)p.r(U)p.r(C)p.r(G)p.r(G)p.r(C)p.r(G)p.r(G)p.d(C)p.d(C)}$$$RNA1{StrandType:ss}|RNA2{StrandType:as}$	21.8%
RNA1{r(C)p.r(C)p.r(G)p.r(U)p.r(G)p.r(C)p.r(A)p.r(C)p.r(U)p.r(A)p.r(C)p.r(C)p.r(U)p.r(G)p.r(U)p.r(C)p.r(C)p.r(U)p.r(U)p.d(T)p.d(T)}|RNA2{r(A)p.r(A)p.r(G)p.r(G)p.r(A)p.r(C)p.r(A)p.r(G)p.r(G)p.r(U)p.r(A)p.r(G)p.r(U)p.r(G)p.r(C)p.r(A)p.r(C)p.r(G)p.r(G)p.d(C)p.d(A)}$$$RNA1{StrandType:ss}|RNA2{StrandType:as}$	86.8%
RNA1{r(C)p.r(C)p.r(U)p.r(A)p.r(C)p.r(A)p.r(G)p.r(C)p.r(U)p.r(U)p.r(U)p.r(G)p.r(G)p.r(G)p.r(A)p.r(G)p.r(A)p.r(A)p.r(C)p.d(T)p.d(T)}|RNA2{r(G)p.r(U)p.r(U)p.r(C)p.r(U)p.r(C)p.r(C)p.r(C)p.r(A)p.r(A)p.r(A)p.r(G)p.r(C)p.r(U)p.r(G)p.r(U)p.r(A)p.r(G)p.r(G)p.d(C)p.d(A)}$$$RNA1{StrandType:ss}|RNA2{StrandType:as}$	81.9%
RNA1{r(C)p.r(C)p.r(U)p.r(C)p.r(U)p.r(U)p.r(C)p.r(A)p.r(U)p.r(C)p.r(A)p.r(A)p.r(U)p.r(G)p.r(G)p.r(A)p.r(A)p.r(U)p.r(C)p.d(T)p.d(T)}|RNA2{r(G)p.r(A)p.r(U)p.r(U)p.r(C)p.r(C)p.r(A)p.r(U)p.r(U)p.r(G)p.r(A)p.r(U)p.r(G)p.r(A)p.r(A)p.r(G)p.r(A)p.r(G)p.r(G)p.d(G)p.d(T)}$$$RNA1{StrandType:ss}|RNA2{StrandType:as}$	73.9%
RNA1{r(C)p.r(C)p.r(U)p.r(G)p.r(A)p.r(A)p.r(G)p.r(G)p.r(A)p.r(C)p.r(U)p.r(U)p.r(C)p.r(A)p.r(A)p.r(C)p.r(G)p.r(U)p.r(G)p.d(T)p.d(T)}|RNA2{r(C)p.r(A)p.r(C)p.r(G)p.r(U)p.r(U)p.r(G)p.r(A)p.r(A)p.r(G)p.r(U)p.r(C)p.r(C)p.r(U)p.r(U)p.r(C)p.r(A)p.r(G)p.r(G)p.d(A)p.d(T)}$$$RNA1{StrandType:ss}|RNA2{StrandType:as}$	84.5%
RNA1{r(C)p.r(C)p.r(U)p.r(G)p.r(C)p.r(U)p.r(C)p.r(A)p.r(U)p.r(G)p.r(U)p.r(A)p.r(C)p.r(A)p.r(U)p.r(G)p.r(A)p.r(U)p.r(C)p.d(T)p.d(T)}|RNA2{r(G)p.r(A)p.r(U)p.r(C)p.r(A)p.r(U)p.r(G)p.r(U)p.r(A)p.r(C)p.r(A)p.r(U)p.r(G)p.r(A)p.r(G)p.r(C)p.r(A)p.r(G)p.r(G)p.d(C)p.d(C)}$$$RNA1{StrandType:ss}|RNA2{StrandType:as}$	73.1%
